According to the NIST ThermoML archive (doi:10.1016/j.jct.2005.03.019):

Experiment: xn = mol fraction of the nth substance listed
Settings: 101 kPa, Liquid, Vibrating tube method

CC1COC(=O)O1 (configuration not stated) [4-methyl-1,3-dioxolan-2-one] + c1ccccc1
Settings	mass density [kg/m3]
293.15 K, x2 = 0	1200.3
293.15 K, x2 = 0.049	1184.5
293.15 K, x2 = 0.1189	1162
293.15 K, x2 = 0.1749	1144.1
293.15 K, x2 = 0.2349	1125
293.15 K, x2 = 0.2949	1105.9
293.15 K, x2 = 0.3649	1083.6
293.15 K, x2 = 0.4248	1064.6
293.15 K, x2 = 0.4959	1041.9
293.15 K, x2 = 0.5529	1023.8
293.15 K, x2 = 0.6249	1000.7
293.15 K, x2 = 0.6934	978.6
293.15 K, x2 = 0.7539	959
293.15 K, x2 = 0.8135	939.6
293.15 K, x2 = 0.8622	923.6
293.15 K, x2 = 0.9248	902.9
303.15 K, x2 = 0	1180.6
303.15 K, x2 = 0.0487	1165.3
303.15 K, x2 = 0.1273	1140.9
303.15 K, x2 = 0.1841	1123.3
303.15 K, x2 = 0.2487	1103.3
303.15 K, x2 = 0.3127	1083.6
303.15 K, x2 = 0.3749	1064.4
303.15 K, x2 = 0.4364	1045.4
303.15 K, x2 = 0.4821	1031.4
303.15 K, x2 = 0.5428	1012.6
303.15 K, x2 = 0.6038	993.7
303.15 K, x2 = 0.6782	970.5
303.15 K, x2 = 0.7465	949.1
303.15 K, x2 = 0.8246	924.4
303.15 K, x2 = 0.8846	905.3
303.15 K, x2 = 0.9381	888.1
313.15 K, x2 = 0	1161.3
313.15 K, x2 = 0.0537	1145
313.15 K, x2 = 0.1295	1122
313.15 K, x2 = 0.1649	1111.4
313.15 K, x2 = 0.2359	1090
313.15 K, x2 = 0.3139	1066.7
313.15 K, x2 = 0.3619	1052.3
313.15 K, x2 = 0.4143	1036.6
313.15 K, x2 = 0.4829	1016.1
313.15 K, x2 = 0.5498	996.1
313.15 K, x2 = 0.625	973.4
313.15 K, x2 = 0.6821	956.2
313.15 K, x2 = 0.7492	935.8
313.15 K, x2 = 0.8247	912.6
313.15 K, x2 = 0.8732	897.6
313.15 K, x2 = 0.9348	878.4
323.15 K, x2 = 0	1142.4
323.15 K, x2 = 0.0598	1124.7
323.15 K, x2 = 0.131	1103.7
323.15 K, x2 = 0.1856	1087.7
323.15 K, x2 = 0.2438	1070.7
323.15 K, x2 = 0.3257	1046.8
323.15 K, x2 = 0.3987	1025.6
323.15 K, x2 = 0.4589	1008.1
323.15 K, x2 = 0.5156	991.6
323.15 K, x2 = 0.5687	976.1
323.15 K, x2 = 0.6145	962.7
323.15 K, x2 = 0.6647	948
323.15 K, x2 = 0.7365	926.8
323.15 K, x2 = 0.7965	909
323.15 K, x2 = 0.8567	891
323.15 K, x2 = 0.9267	869.8
333.15 K, x2 = 0	1124
333.15 K, x2 = 0.0592	1106.9
333.15 K, x2 = 0.1281	1087
333.15 K, x2 = 0.1834	1071.2
333.15 K, x2 = 0.2487	1052.6
333.15 K, x2 = 0.3279	1030.1
333.15 K, x2 = 0.3987	1010
333.15 K, x2 = 0.4598	992.7
333.15 K, x2 = 0.5139	977.4
333.15 K, x2 = 0.5533	966.2
333.15 K, x2 = 0.6138	949
333.15 K, x2 = 0.6623	935.1
333.15 K, x2 = 0.7246	917.3
333.15 K, x2 = 0.7749	902.7
333.15 K, x2 = 0.8568	878.9
333.15 K, x2 = 0.9248	858.9
343.15 K, x2 = 0	1106
343.15 K, x2 = 0.0638	1087.9
343.15 K, x2 = 0.1139	1073.8
343.15 K, x2 = 0.1756	1056.4
343.15 K, x2 = 0.2439	1037.4
343.15 K, x2 = 0.3178	1016.9
343.15 K, x2 = 0.3875	997.6
343.15 K, x2 = 0.4583	978
343.15 K, x2 = 0.5076	964.3
343.15 K, x2 = 0.5586	950.2
343.15 K, x2 = 0.6246	931.9
343.15 K, x2 = 0.6981	911.4
343.15 K, x2 = 0.7528	896.1
343.15 K, x2 = 0.8137	878.9
343.15 K, x2 = 0.8748	861.5
343.15 K, x2 = 0.9361	843.9
353.15 K, x2 = 0	1088.4
353.15 K, x2 = 0.053	1073.6
353.15 K, x2 = 0.1329	1051.5
353.15 K, x2 = 0.1822	1037.9
353.15 K, x2 = 0.2378	1022.7
353.15 K, x2 = 0.3327	996.9
353.15 K, x2 = 0.381	983.8
353.15 K, x2 = 0.4485	965.5
353.15 K, x2 = 0.5236	945.2
353.15 K, x2 = 0.5728	931.9
353.15 K, x2 = 0.6387	914
353.15 K, x2 = 0.6831	901.9
353.15 K, x2 = 0.7428	885.6
353.15 K, x2 = 0.7933	871.7
353.15 K, x2 = 0.8642	852.1
353.15 K, x2 = 0.9461	829.2
